Source: article PMC3434039, “Overexpression of an exotic thermotolerant β-glucosidase in trichoderma reesei and its significant increase in cellulolytic activity and saccharification of barley straw” (Microbial Cell Factories, 2012)

Molecular target: T1, Periconia sp. BGLI (recombinant β-glucosidase, bgl1) (Periconia sp. BCC 2871, UniProt A9UIG0, T284I/N305T)
T1 construct: full-length bgl1 (2601 bp cDNA, own signal peptide) expressed in T. reesei QM9414 under tef1 promoter, secreted, culture supernatant; predicted about 95 kDa, glycosylated
Assay: MUG zymogram after native PAGE of culture supernatant
Type: biochemical
Conditions: 5 mM MUG, 50 mM sodium citrate, pH 5.0, 70 °C, 10 min
Source text: MUG zymogram after native PAGE of culture supernatant on Periconia sp.

T1 sequence (A9UIG0 entry or part of it T284I/N305T): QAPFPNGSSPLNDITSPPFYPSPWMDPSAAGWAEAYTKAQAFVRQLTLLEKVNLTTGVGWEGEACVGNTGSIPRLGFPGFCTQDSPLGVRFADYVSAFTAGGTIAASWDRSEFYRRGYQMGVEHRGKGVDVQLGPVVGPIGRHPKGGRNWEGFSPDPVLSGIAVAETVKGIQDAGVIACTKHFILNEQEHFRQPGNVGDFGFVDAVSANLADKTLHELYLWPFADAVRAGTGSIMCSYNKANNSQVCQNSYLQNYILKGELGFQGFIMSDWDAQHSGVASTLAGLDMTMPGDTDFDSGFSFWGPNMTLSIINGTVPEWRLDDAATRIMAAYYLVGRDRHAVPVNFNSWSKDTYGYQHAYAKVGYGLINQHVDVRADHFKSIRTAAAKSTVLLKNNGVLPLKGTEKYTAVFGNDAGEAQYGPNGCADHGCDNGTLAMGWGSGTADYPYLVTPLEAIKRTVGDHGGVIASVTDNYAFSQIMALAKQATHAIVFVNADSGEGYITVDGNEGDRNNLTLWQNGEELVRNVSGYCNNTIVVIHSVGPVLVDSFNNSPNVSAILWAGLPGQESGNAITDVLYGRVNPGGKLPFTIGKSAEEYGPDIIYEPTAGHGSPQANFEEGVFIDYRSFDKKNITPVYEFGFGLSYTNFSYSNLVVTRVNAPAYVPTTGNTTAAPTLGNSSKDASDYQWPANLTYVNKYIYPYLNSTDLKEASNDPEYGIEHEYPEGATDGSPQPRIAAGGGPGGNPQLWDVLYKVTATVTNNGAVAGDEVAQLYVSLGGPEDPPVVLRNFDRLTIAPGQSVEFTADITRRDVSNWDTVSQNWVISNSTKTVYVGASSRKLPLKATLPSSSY

## Cc1cc(=O)oc2cc(O[C@@H]3O[C@H](CO)[C@@H](O)[C@H](O)[C@H]3O)ccc12 [4-methylumbelliferyl β-D-glucopyranoside]
  MUG zymogram after native PAGE of culture supernatant: second active β- glucosidase with higher molecular weight was only obtained from the transformants
